Biological target: T1, BSA-NSP-DMAE (Bos taurus, UniProt P02769)
T1 construct: NSP-DMAE acridinium ester (chemical label attached through an amine-reactive NHS ester, about 1.4 per molecule)
Experiment: Zwitterion label incorporation into acridinium ester labeled BSA, measured by MALDI-TOF mass spectroscopy
Design: species or system bovine
Method: The zwitterion-containing compounds of the present invention may also be useful for lowering the non-specific binding of hydrophobic and ‘sticky’ proteins. In one experiment, the chemical competency of certain exemplary amine-reactive zwitterion-containing compounds shown in FIG. 1 were evaluated by treating an acridinium ester (e.g., 2′,6′-Dimethyl-4′-(N-succinimidyloxycarbonyl)phenyl 10-Methyl-9-acridinecarboxylate Methylsulfate (NSP-DMAE) or other suitable acridinium esters described by Law et al. in U.S. Pat. No. 5,656,426, which is incorporated herein by reference) labeled bovine serum albumin (BSA) or bovine gamma globulin (BGG) with 10 and 20 equivalents of the zwitterion-containing compound followed by measurement of the zwitterion-containing compound incorporation by mass spectroscopy. The detailed experimental protocol is described in Example 15.
A solution of BSA (4 mg, 60 nmoles) in 1 mL of 0.1 M sodium bicarbonate was treated with 5 equivalents of 2′,6′-Dimethyl-4′-(N-succinimidyloxycarboxnyl)phenyl 10-(3′-Sulfopropyl)-acridinium-9-carboxylate (NSP-DMAE-NHS) added as a solution in DMF (72 μL of a 2 mg/mL solution in DMF). The reaction was stirred at room temperature for 4 hours. The reaction was then transferred to a 4 mL amicon filter (MW 30,000 cutoff) and diluted with 3 mL de-ionized water. The filter was centrifuged at 4000G for 8 minutes to reduce the volume to about 0.25 mL. The final conjugate was diluted to 0.8 mL with de-ionized water to give a 5 mg/mL solution. Acridinium ester label incorporation, measured by MALDI-TOF mass spectroscopy using sinnapinic acid as matrix indicated the incorporation of 1.4 labels.
Further labeling of the acridinium ester-labeled BSA conjugate with the zwitterion labels 1d, 2c, 3c and 4c was carried out as follows. The conjugate (0.5 mg, 7.5 nmoles, 100 μL) was diluted with 100 μL of sodium carbonate, pH 9. To this conjugate, in four separate reactions, was added 10 equivalents of the four zwitterion labels 1d, 2c, 3c and 4c dissolved in DMSO corresponding to 12.8 μL of a 2.5 mg/mL solution of 1d; 16.5 μL of a 2 mg/mL solution of 2c; 16.5 μL of a 2 mg/mL solution of 3c and 14 μL of a 2.5 mg/mL solution of 4c. The reactions were stirred at room temperature for 4 hours and were then processed as described above.

T1 sequence (P02769 25-607): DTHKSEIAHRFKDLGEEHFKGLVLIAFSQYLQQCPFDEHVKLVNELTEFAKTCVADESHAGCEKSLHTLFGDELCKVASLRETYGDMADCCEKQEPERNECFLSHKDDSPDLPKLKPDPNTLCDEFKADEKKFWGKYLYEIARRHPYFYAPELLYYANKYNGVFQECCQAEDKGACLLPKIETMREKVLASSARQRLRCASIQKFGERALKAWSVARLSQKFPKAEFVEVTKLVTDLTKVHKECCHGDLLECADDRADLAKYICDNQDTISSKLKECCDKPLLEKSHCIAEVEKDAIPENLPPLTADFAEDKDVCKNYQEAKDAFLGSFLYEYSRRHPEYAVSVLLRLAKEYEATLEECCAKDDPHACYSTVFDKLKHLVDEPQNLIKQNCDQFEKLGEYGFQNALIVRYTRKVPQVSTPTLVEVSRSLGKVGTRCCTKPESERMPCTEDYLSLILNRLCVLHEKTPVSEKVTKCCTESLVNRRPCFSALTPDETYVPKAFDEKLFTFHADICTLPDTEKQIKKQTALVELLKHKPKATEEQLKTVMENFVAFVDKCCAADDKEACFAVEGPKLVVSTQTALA

SMILES | # of Zwitterion-Containing Compounds Incorporated by Conjugate (input 10 equivalents) | # of Zwitterion-Containing Compounds Incorporated by Conjugate (input 20 equivalents)
C[N+](C)(CCCC(=O)Oc1c(F)c(F)c(F)c(F)c1F)CCS(=O)(=O)[O-] [Compound 1d] | 5 | –
C[N+](C)(CCCC(=O)Oc1c(F)c(F)c(F)c(F)c1F)CCCS(=O)(=O)[O-] [Compound 2c] | 5 | 8
C[N+](C)(CCCCS(=O)(=O)[O-])CCCC(=O)Oc1c(F)c(F)c(F)c(F)c1F [Compound 3c] | 3.3 | –
CCCOP(=O)([O-])OCC[N+](C)(C)CCCC(=O)Oc1c(F)c(F)c(F)c(F)c1F [Compound 4c] | 3.4 | 7.1

— US10710962B2, “Zwitterionic reagents” (Siemens Healthcare Diagnostics Inc., priority 2010, dated 2020)
